Test results as given in patent US7276352B2, “Induction of β cell differentiation in human cells by stimulation of the GLP-1 receptor” (The Regents of the University of California, priority 2000, dated 2007).

B1: betacellulin (protein, UniProt P35070 32-111, looked up)
Betacellulin: DGNSTRSPETNGLLCGDPEENCAATTTQSKRKGHFSRCPKQYKHYCIKGRCRFVVAEQTPSCVCDEGYIGARCERVDLFY
notes: factor reported to be able to induce endocrine differentiation in cell lines and primary cells

Key:
βlox5 cells [1] = experiment: RT-PCR analysis of pancreatic hormone gene expression in βlox5 cells; assay type: cell-based, human; conditions: for hormone expression in βlox5 cells: βlox5 cells expressing PDX-1, data not shown
Source text: FIG. 2: RT-PCR analysis of pancreatic hormone gene expression in βlox5. The conditions tested were βlox5 cells grown in monolayer culture, βlox5 cells infected with a retroviral vector expressing PDX-1, βlox5 cells grown as three-dimensional aggregates, and βlox5 cells treated with exendin-4. FIG. 2(A) insulin; FIG. 2(B) quantitative RT-PCR analysis of insulin gene expression; FIG. 2(C) other pancreatic hormones. Aggregation of cells into three-dimensional clusters and the retroviral vector expressing PDX-1 have been described previously (Itkin-Ansari et al., submitted). Exendin-4 (Sigma) was used at a concentration of 10 nM. RT-PCR for insulin, somatostatin, glucagon, and IAPP have been described previously (Itkin-Ansari et al., submitted). Quantitative RT-PCR was done by interpolation from a standard curve constructed using a plasmid containing the human insulin cDNA.
PDX-1 also acted synergistically with cell-cell contact to further increase the level of […] expression about 1,000-fold above the cells not expressing PDX-1, to a level similar to that found in normal human islets. To determine whether βlox5 could be induced to express pancreatic hormones, recombinant PDX-1 was expressed in βlox5 using a retroviral vector. […] Therefore, other factors were examined for their ability to induce hormone expression in βlox5 cells expressing PDX-1. Activin and betacellulin have been reported to be able to induce endocrine differentiation in cell lines and primary cells (Mashima et al., Diabetes 48:304-9 (1999), Huotari et al., Endocrinology 139, 1494-9 (1998), Mashima et al., J Clin Invest 97:1647-54 (1996), Yamaoka et al, J Clin Invest 102:294-301 (1998)). However, they had no effect on hormone expression in βlox5 cells (data not shown).
GLP-1, a small peptide cleaved from the proglucagon molecule, is an insulin secretogogue Drucker et al., Diabetes 47:159-69 (1998)).
By itself, exendin-4 had no effect on hormone expression in βlox5 (FIG. 2A, lane 8). […] The nature of the interaction between exendin-4, cell-cell contact, and PDX-1 is evident from the fact that no hormone mRNA was detectable with any one or two of the three inducing factors (FIG. 2A). […] Islet amyloid polypeptide (IAPP) mRNA, a hormone that is co-secreted with insulin, was also expressed in induced βlox5 cells (FIG. 2C, lane 2). However, the other major pancreatic hormones, glucagon, somatostatin, and pancreatic polypeptide (PP), were not induced (FIG. 2C).

βlox5 cells [2] = experiment: Analysis of transcription factors expressed in βlox5 cells (RT-PCR, Western blot); assay type: cell-based, human
Experimental: FIG. 3: Analysis of transcription factors expressed in βlox5 cells. FIG. 3(A) electrophoretic mobility shift assay (EMSA) of PDX-1. EM5A for PDX-1 was performed using a probe derived from the human insulin promoter A5 element. FIGS. 3(B&C) RT-PCR analysis of BETA2 and Pax6. FIG. 3(D) Western blot analysis of CREB. FIG. 3(E) EMSA of RIPE3b.
The expression of transcription factors important in β-cell development was examined to determine whether they had been induced by PDX-1, cell-cell contact, and exendin-4. […] GLP-1 has been reported to increase cAMP levels and this has been thought to be a major mechanism by which GLP-1 acts as an insulin secretogogue (Serre et al., Endocrinology 139:4448-54 (1998)). […] RIPE3b, a factor that plays a critical role in insulin gene expression but that has not yet been cloned, is expressed in βlox5 irrespective of PDX-1, cell-cell contact, or exendin-4 (FIG. 3E).

[3] = induced βlox5 cells (PDX-1, cell-cell contact, exendin-4 10 nM)

| Molecule | hormone expression in βlox5 (βlox5 cells [1]; exendin-4 by itself, 10 nM, four days, no PDX-1, no aggregation) | Islet amyloid polypeptide (IAPP) mRNA (βlox5 cells [1]; [3]) | glucagon, somatostatin and pancreatic polypeptide (PP) expression (βlox5 cells [1]; [3]) | insulin mRNA (βlox5 cells [1]; βlox5 cells expressing PDX-1, suspension culture as three-dimensional aggregates, 10 nM exendin-4 for four days) | BETA2 expression (βlox5 cells [2]; PDX-1, cell-cell contact and exendin-4, RT-PCR) | CREB expression (βlox5 cells [2]; exendin-4 alone, independently of cell-cell contact and PDX-1, Western blot) | hormone expression in βlox5 cells (βlox5 cells [1]) |
| --- | --- | --- | --- | --- | --- | --- | --- |
| exendin-4 | no effect | expressed | not induced | substantial amount of insulin mRNA was detectable | induced only by the combination of all three inducing factors | induced | – |
| Activin | – | – | – | – | – | – | no effect |
| B1 | – | – | – | – | – | – | no effect |
